# Test results as given in PubChem BioAssay (NCI).
#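 Step 1: Grow cells in 96-well plates. Step 2: Expose to compound for 48 hours at 5 concentrations. Step 3: Interpolate endpoints linearly; if unreached, use highest concentration. At the TGI there is no net growth.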
# How the values were obtained:
# Experiment in all cases: inhibition of tumour cell growth, NCI panel, 48 h
# [1] = tested on: 786-0 renal
# [2] = tested on: A498 renal
# [3] = tested on: A549 NSCLC
# [4] = tested on: BT-549 breast
# [5] = tested on: CAKI-1 renal
# [6] = tested on: COLO 205 colon
# [7] = tested on: DU-145 prostate
# [8] = tested on: EKVX NSCLC
# [9] = tested on: HCC-2998 colon
# [10] = tested on: HCT-116 colon
# [11] = tested on: HCT-15 colon
# [12] = tested on: HL-60(TB) leukemia
# [13] = tested on: HOP-92 NSCLC
# [14] = tested on: HS 578T breast
# [15] = tested on: HT29 colon
# [16] = tested on: IGROV1 ovarian
# [17] = tested on: K-562 leukemia
# [18] = tested on: KM12 colon
# [19] = tested on: LOX IMVI melanoma
# [20] = tested on: M14 melanoma
# [21] = tested on: MALME-3M melanoma
# [22] = tested on: MCF7 breast
# [23] = tested on: MDA-MB-231 breast
# [24] = tested on: MDA-MB-435
# [25] = tested on: MDA-N
# [26] = tested on: MOLT-4 leukemia
# [27] = tested on: NCI-H226 lung
# [28] = tested on: NCI-H23 lung
# [29] = tested on: NCI-H460 lung
# [30] = tested on: NCI/ADR-RES ovarian
# [31] = tested on: OVCAR-3 ovarian
# [32] = tested on: OVCAR-4 ovarian
# [33] = tested on: OVCAR-5 ovarian
# [34] = tested on: OVCAR-8 ovarian
# [35] = tested on: PC-3 prostate
# [36] = tested on: RPMI-8226 leukemia
# [37] = tested on: RXF 393 renal
# [38] = tested on: SF-268 CNS
# [39] = tested on: SF-539 CNS
# [40] = tested on: SK-MEL-2 melanoma
# [41] = tested on: SK-MEL-28 melanoma
# [42] = tested on: SK-MEL-5 melanoma
# [43] = tested on: SK-OV-3 ovarian
# [44] = tested on: SN12C renal
# [45] = tested on: SNB-19 CNS
# [46] = tested on: SNB-75 CNS
# [47] = tested on: SR leukemia
# [48] = tested on: SW-620 colon
# [49] = tested on: T-47D breast
# [50] = tested on: TK-10 renal
# [51] = tested on: U251 CNS
# [52] = tested on: UACC-257 melanoma
# [53] = tested on: UACC-62 melanoma
# [54] = tested on: UO-31 renal
# [55] = tested on: ACHN renal
# [56] = tested on: CCRF-CEM leukemia
# [57] = tested on: HOP-62 NSCLC
# [58] = tested on: NCI-H522 lung
# [59] = tested on: SF-295 CNS
smiles,measurement,setting,value
C=C1CN(C(=O)c2cc3cc(OC)c(OC)c(OC)c3[nH]2)c2cc([N+](=O)[O-])ccc21,TGI,[1],> 100 µM
same,TGI,[2],> 100 µM
same,TGI,[3],> 100 µM
same,TGI,[4],> 100 µM
same,TGI,[5],> 100 µM
same,TGI,[6],> 100 µM
same,TGI,[7],> 100 µM
same,TGI,[8],> 100 µM
same,TGI,[9],> 100 µM
same,TGI,[10],> 100 µM
same,TGI,[11],> 100 µM
same,TGI,[12],> 100 µM
same,TGI,[13],> 100 µM
same,TGI,[14],41.9 µM
same,TGI,[15],> 100 µM
same,TGI,[16],> 100 µM
same,TGI,[17],> 100 µM
same,TGI,[18],> 100 µM
same,TGI,[19],> 100 µM
same,TGI,[20],> 100 µM
same,TGI,[21],> 100 µM
same,TGI,[22],> 100 µM
same,TGI,[23],88.5 µM
same,TGI,[24],> 100 µM
same,TGI,[25],> 100 µM
same,TGI,[26],> 100 µM
same,TGI,[27],> 100 µM
same,TGI,[28],> 100 µM
same,TGI,[29],> 100 µM
same,TGI,[30],> 100 µM
same,TGI,[31],> 100 µM
same,TGI,[32],> 100 µM
same,TGI,[33],> 100 µM
same,TGI,[34],> 100 µM
same,TGI,[35],> 100 µM
same,TGI,[36],> 100 µM
same,TGI,[37],> 100 µM
same,TGI,[38],> 100 µM
same,TGI,[39],> 100 µM
same,TGI,[40],> 100 µM
same,TGI,[41],> 100 µM
same,TGI,[42],> 100 µM
same,TGI,[43],> 100 µM
same,TGI,[44],> 100 µM
same,TGI,[45],> 100 µM
same,TGI,[46],> 100 µM
same,TGI,[47],> 100 µM
same,TGI,[48],> 100 µM
same,TGI,[49],> 100 µM
same,TGI,[50],> 100 µM
same,TGI,[51],> 100 µM
same,TGI,[52],> 100 µM
same,TGI,[53],> 100 µM
same,TGI,[54],> 100 µM
c1ccc2c3c(c(N4CCNCC4)nc2c1)CCCC3,TGI,[1],27.7 µM
same,TGI,[2],27.6 µM
same,TGI,[3],30.8 µM
same,TGI,[55],27.6 µM
same,TGI,[4],26.9 µM
same,TGI,[5],21.9 µM
same,TGI,[56],31.4 µM
same,TGI,[6],18.9 µM
same,TGI,[7],28.6 µM
same,TGI,[8],21.1 µM
same,TGI,[9],4.15 µM
same,TGI,[10],27.5 µM
same,TGI,[11],29.3 µM
same,TGI,[12],24.3 µM
same,TGI,[57],48.4 µM
same,TGI,[13],27.2 µM
same,TGI,[14],> 100 µM
same,TGI,[15],28.3 µM
same,TGI,[16],25 µM
same,TGI,[17],> 100 µM
same,TGI,[18],33.7 µM
same,TGI,[19],27.2 µM
same,TGI,[20],19 µM
same,TGI,[21],37.3 µM
same,TGI,[22],27.6 µM
same,TGI,[23],27.4 µM
same,TGI,[24],24.4 µM
same,TGI,[25],28.3 µM
same,TGI,[26],> 100 µM
same,TGI,[27],29.6 µM
same,TGI,[28],28 µM
same,TGI,[29],29.4 µM
same,TGI,[58],31.5 µM
same,TGI,[30],27.3 µM
same,TGI,[31],40.1 µM
same,TGI,[32],31.5 µM
same,TGI,[33],26.9 µM
same,TGI,[34],29.6 µM
same,TGI,[35],25.7 µM
same,TGI,[37],22.7 µM
same,TGI,[38],33.8 µM
same,TGI,[59],45.8 µM
same,TGI,[39],23.2 µM
same,TGI,[40],25.2 µM
same,TGI,[41],31.1 µM
same,TGI,[42],24.3 µM
same,TGI,[43],42.7 µM
same,TGI,[44],31.1 µM
same,TGI,[45],29.2 µM
same,TGI,[46],27 µM
same,TGI,[47],> 100 µM
same,TGI,[48],35 µM
same,TGI,[49],28.5 µM
same,TGI,[50],26.6 µM
same,TGI,[51],26.2 µM
same,TGI,[52],20.6 µM
same,TGI,[53],30.4 µM
same,TGI,[54],16.3 µM
